This passage reports IC50 and IC90 results from ChEMBL document CHEMBL4483862, “Open-source discovery of chemical leads for next-generation chemoprotective antimalarials” (2018).

A value given as a limit tells only on which side of the number the result lay.

The test system of the assay is Plasmodium berghei. In words: Luciferase/luciferin-expressing antifolate-resistant parasites were used to infect a culture of HepG2 cells that were pre-incubated with compounds. Infected hepatocytes emit light due to the luciferase reaction. Assay results are presented as the percent inhibition of light emission compared to control. […]. The following applies: sporozoite; for IC50: read-out: LUCIFERASE INFECTION ASSAY - IC50; for IC90: read-out: LUCIFERASE INFECTION ASSAY - IC90. The format is functional.

Broadly, the IC50 is the point on the concentration scale where inhibition reaches its midpoint. The IC90 is the concentration at which the effect reaches the 90% level.

`Oc1ccccc1Nc1nc(NCc2ccccc2)c2ccccc2n1`: the IC50 is 2.58 µM and the IC90 was more than 8.71 µM.

For `Cc1onc(-c2c(F)cccc2Cl)c1C(=O)NC1CCSC1=O` (stereo not drawn), the concentration for half-maximal inhibition (IC50) is more than 9.3 µM and the concentration for an effect of 90% (IC90) was more than 9.3 µM.

As for `CCN(CC)C(=O)CSc1nnc2nnc3cc(C)ccc3n12`, the half-maximal inhibitory concentration (IC50) was more than 9.99 µM and the IC90 is more than 9.99 µM.

Turning to `Cn1nc(C(C)(C)C)cc1NC(=O)Nc1cc(Cl)cc(Cl)c1`, the half-maximal inhibitory concentration (IC50) is more than 9.67 µM and the IC90 was more than 9.67 µM.

As to `c1ccc(CN2CCC(Nc3ncnc4sccc34)CC2)cc1`, the IC50 turned out to be 8.87 µM and the IC90 is more than 10 µM.

On to `NC(c1csc(Nc2nccc(C(F)(F)F)n2)n1)C1CCCCC1` (stereo not drawn), for which the half-inhibitory concentration (IC50) came to 2.8 µM and the IC90 stood at 3.66 µM.

On to `CCNC(=O)C1CCCN(C(=O)c2c(-c3ccccc3)noc2C)CC1` (stereo not drawn), for which the IC50 was more than 9.28 µM and the IC90 was more than 9.28 µM.

For `Nc1nnc(SCc2c(F)cccc2Cl)[nH]1`, the half-maximal inhibitory concentration (IC50) is more than 12.8 µM and the IC90 is more than 12.8 µM.

`O=C(NC(=O)N1CCc2c([nH]c3ccccc23)C1C(F)(F)F)c1ccccc1` (stereo not drawn): the IC50 is more than 8.52 µM and the IC90 is more than 8.52 µM.

As to `N#CCS(=O)(=O)c1ccc(OC(F)(F)F)cc1`, the concentration for half-maximal inhibition (IC50) is more than 12.4 µM and the concentration for an effect of 90% (IC90) was more than 12.4 µM.

With `FC(F)(F)c1cccc(-c2nc3ccnc(Nc4ccccc4)c3[nH]2)c1`, the IC50 turned out to be 3.2 µM and the concentration for an effect of 90% (IC90) is more than 10 µM.

With `CC1=CC(=O)N(c2cc(Cl)cc(Cl)c2)C1=O`, the half-inhibitory concentration (IC50) is more than 12.9 µM and the IC90 was more than 12.9 µM.

For the molecule `CC(C)OC(=O)Nc1cc(Cl)cc(Cl)c1`, the IC50 is more than 13.3 µM and the concentration for an effect of 90% (IC90) is more than 13.3 µM.

Turning to `O=C(Nc1cc(Cl)cc(Cl)c1)N1CCC(n2cccc2)CC1`, the concentration for half-maximal inhibition (IC50) is more than 9.76 µM and the 90% effect concentration (IC90) was more than 9.76 µM.

As for `CC(=O)Nc1ccc(-c2cnc3ccc(-c4ccoc4)nn23)cc1`, the half-maximal inhibitory concentration (IC50) was 3.52 µM and the IC90 was 4.31 µM.

Consider `Cc1c2cnn(C)c(=O)c2c(C)n1-c1ccccc1`, for which the IC50 is more than 13 µM and the IC90 was more than 13 µM.

On to `COCC(C)NS(=O)(=O)c1c(C(C)C)cc(C(C)C)cc1C(C)C` (stereo not drawn), for which the IC50 was more than 9.28 µM and the 90% effect concentration (IC90) is more than 9.28 µM.

For the molecule `CSc1ccc(OC(=O)Nc2ccccc2)cc1`, the IC50 is more than 12.7 µM and the concentration for an effect of 90% (IC90) is more than 12.7 µM.

Turning to `CCOC(=O)N1CCN(C2c3ccccc3-c3ccccc32)CC1`, the IC50 came to 8.79 µM and the IC90 was more than 10.2 µM.

As to `O=C(CN1CCCCC1)Nc1c(F)cccc1F`, the IC50 was more than 13 µM and the IC90 was more than 13 µM.

With `COc1ccc(CO)c(Cl)c1OC`, the half-maximal inhibitory concentration (IC50) was more than 16.3 µM and the 90% effect concentration (IC90) was more than 16.3 µM.

As to `CN(C)CCNC(=O)c1ccc(-c2cc(-c3cc4ccccc4s3)cnc2N)cc1`, the concentration for half-maximal inhibition (IC50) was more than 7.92 µM and the 90% effect concentration (IC90) was more than 7.92 µM.

As for `CCOc1nc(N)c(C#N)c(-c2ccc(C(F)(F)F)cc2)c1C#N`, the half-inhibitory concentration (IC50) was 4.53 µM and the IC90 amounted to 8.21 µM.

As to `CSc1sc(C(=O)Sc2ccccc2)cc1S(=O)(=O)C(C)C`, the IC50 was more than 8.86 µM and the IC90 was more than 8.86 µM.

As to `O=C1NCCN1CCNc1nn2c(-c3cccc(OC(F)(F)F)c3)cnc2s1`, the IC50 is more than 8 µM and the concentration for an effect of 90% (IC90) was more than 8 µM.

Turning to `Cc1ccc(S(=O)(=O)NN=c2nc[nH]c3sccc23)cc1`, the half-maximal inhibitory concentration (IC50) was 2.59 µM and the IC90 was 5.7 µM.

As for `Cc1c(C(=O)Nc2cccc(Cl)c2)sc2nc(C(F)(F)F)nn12`, the half-inhibitory concentration (IC50) was more than 9.15 µM and the IC90 was more than 9.15 µM.

`COc1cc(-c2cncc(Nc3cccc(C(F)(F)F)c3)n2)cc(OC)c1OC`: the IC50 is 4.6 µM and the IC90 is more than 8.14 µM.

For the molecule `COc1ccc(Nc2nccc3nc(-c4cccc(OC(F)(F)F)c4)[nH]c23)cc1OC`, the IC50 was 3.54 µM and the IC90 is more than 10 µM.

As to `c1ccc(CCNc2nn3c(-c4ccsc4)cnc3s2)nc1`, the 50% inhibitory concentration (IC50) was more than 10.1 µM and the IC90 is more than 10.1 µM.

For `COc1ccc(-c2cnc3sc(NCCc4ccncc4)nn23)cn1`, the half-inhibitory concentration (IC50) is more than 9.36 µM and the 90% effect concentration (IC90) is more than 9.36 µM.

For the molecule `O=C(Nc1ccccc1)c1ccc(C#Cc2ccccc2)o1`, the IC50 is more than 11.5 µM and the IC90 was more than 11.5 µM.

As to `CSc1sc(Cl)c(-c2ccc(Cl)cc2)c1C#N`, the IC50 is more than 11 µM and the concentration for an effect of 90% (IC90) was more than 11 µM.

Regarding `CC(=O)Nc1cnc(-c2ccccc2N(C)C)cn1`, the IC50 is more than 12.9 µM and the IC90 was more than 12.9 µM.

On to `CSc1nnc(-c2ccc(C(C)(C)C)cc2)n1C`, for which the IC50 was more than 12.6 µM and the 90% effect concentration (IC90) is more than 12.6 µM.

With `COc1ccc(-c2cncc(-c3ccc(N)cc3)n2)cc1`, the IC50 stood at 7.82 µM and the IC90 came to 11.7 µM.

As to `COc1cc(NS(=O)(=O)c2ccc(C)cc2)c(OC)cc1Cl`, the half-inhibitory concentration (IC50) is 2.01 µM and the 90% effect concentration (IC90) was 3.66 µM.

As to `CC(=O)Nc1ccc(-c2cnc3ccc(-c4cccnc4)nn23)cc1`, the half-inhibitory concentration (IC50) is 0.572 µM and the concentration for an effect of 90% (IC90) was determined as 1.22 µM.

With `Cc1ccc(Oc2cccc(F)c2C#N)cc1`, the 50% inhibitory concentration (IC50) was more than 14.5 µM and the concentration for an effect of 90% (IC90) is more than 14.5 µM.

Regarding `COc1ccccc1N1CCN(S(=O)(=O)c2cccc(Cl)c2)CC1`, the IC50 was more than 9 µM and the concentration for an effect of 90% (IC90) is more than 9 µM.

For `N#Cc1ccc(N2CCCN(C(=O)Nc3cc(Cl)cc(Cl)c3)CC2)nc1`, the IC50 was more than 8.46 µM and the 90% effect concentration (IC90) is more than 8.46 µM.

For `COc1cccc(-c2ccc3ncc(-c4cccc(C(=O)NCCN(C)C)c4)n3n2)c1`, the half-maximal inhibitory concentration (IC50) amounted to 1.69 µM and the IC90 was 4.07 µM.

As for `FC(F)(F)Oc1cccc(-c2nc3ccnc(NCCc4ccncc4)c3[nH]2)c1`, the 50% inhibitory concentration (IC50) turned out to be 3.37 µM and the IC90 is more than 10 µM.

With `O=C(CCN1CCOCC1)Nc1cc(C(F)(F)F)ccc1Cl`, the IC50 was more than 9.8 µM and the IC90 is more than 9.8 µM.

Regarding `CN(C)CCN1CCN(c2cccc(-c3ccc(-c4ccccc4)cc3)n2)CC1`, the 50% inhibitory concentration (IC50) was 5.35 µM and the IC90 is more than 8.54 µM.

Turning to `CN(C)c1cccc(CNc2nccc3nc(-c4ccncc4)[nH]c23)c1`, the IC50 is more than 10 µM and the IC90 is more than 10 µM.

As for `N#Cc1ccc(NC(=O)Nc2ccc(C#N)cc2)cc1`, the IC50 was 3.52 µM and the IC90 stood at 4.08 µM.

With `Cn1c(CSc2cccs2)nnc1SCC(=O)Nc1ccc(F)cc1F`, the IC50 is more than 8 µM and the IC90 was more than 8 µM.

For `CSc1nccc(-c2ccc(S(=O)(=O)N3CCCCC3)s2)n1`, the IC50 is more than 9.28 µM and the IC90 was more than 9.28 µM.

Turning to `CCCCCCOc1ccc(-c2cnc(SC)nc2)cc1`, the IC50 is 0.205 µM and the concentration for an effect of 90% (IC90) came out at 0.535 µM.

Consider `Cc1cccc(Nc2cc3[nH]c(-c4ccc(C(=O)N(C)C)cc4)cc3cn2)c1`, for which the 50% inhibitory concentration (IC50) amounted to 6.24 µM and the IC90 was more than 10 µM.

Turning to `C=S(=O)(NC(=O)c1ccc(C(F)(F)F)cc1)c1ccccc1` (stereo not drawn), the IC50 is more than 10.1 µM and the concentration for an effect of 90% (IC90) is more than 10.1 µM.

Regarding `CCn1cc(CN(C)C(=O)c2sc3cccc(Cl)c3c2Cl)c(C)n1`, the half-maximal inhibitory concentration (IC50) is more than 8.63 µM and the IC90 was more than 8.63 µM.

With `Nc1ccccc1C(=O)Nc1cc(C(F)(F)F)cc(C(F)(F)F)c1`, the IC50 is more than 9.48 µM and the IC90 was more than 9.48 µM.

For `N#CC(Nc1ccc(C(F)(F)F)cc1)c1ccccc1` (stereo not drawn), the 50% inhibitory concentration (IC50) was more than 11.9 µM and the 90% effect concentration (IC90) is more than 11.9 µM.

For `COc1ccc(-c2cnc3sc(NCCc4ccccn4)nn23)cn1`, the IC50 was more than 9.36 µM and the 90% effect concentration (IC90) was more than 9.36 µM.

Turning to `CC(C)(Oc1ccc(C#N)cc1)C(=O)O`, the concentration for half-maximal inhibition (IC50) is more than 16.1 µM and the concentration for an effect of 90% (IC90) is more than 16.1 µM.

For the molecule `O=C1C=CC(=O)N1c1cccc2ccccc12`, the IC50 was more than 14.8 µM and the 90% effect concentration (IC90) is more than 14.8 µM.

Take `O=S(=O)(c1ccccc1)c1ccc(S(=O)(=O)N2CCCC2)s1`: the concentration for half-maximal inhibition (IC50) was more than 9.23 µM and the 90% effect concentration (IC90) was more than 9.23 µM.

Take `Cc1cc(NC(=O)c2cc(C(C)(C)C)oc2C)nc(C)n1`: the half-maximal inhibitory concentration (IC50) was more than 11.5 µM and the IC90 is more than 11.5 µM.

With `O=C(CN1CSCC1=O)Nc1nc2ccccc2[nH]1`, the half-maximal inhibitory concentration (IC50) was more than 10 µM and the IC90 was more than 10 µM.

As for `Cc1c(S(=O)(=O)c2ccc(Cl)cc2)csc1C(=O)N1CC(C)OC(C)C1` (stereo not drawn), the IC50 is more than 7.97 µM and the 90% effect concentration (IC90) was more than 7.97 µM.

For `Fc1cccc(-n2nnnc2-c2ccc(Cl)c(Cl)c2)c1`, the half-inhibitory concentration (IC50) is more than 10.7 µM and the IC90 is more than 10.7 µM.

For the molecule `N#CC(Nc1cc(C(F)(F)F)cc(C(F)(F)F)c1)c1ccccc1` (stereo not drawn), the half-inhibitory concentration (IC50) is 7.17 µM and the 90% effect concentration (IC90) was more than 9.59 µM.

For `Cc1noc(C)c1S(=O)(=O)N(C)Cc1ccc(-c2ccc(Cl)cc2)o1`, the IC50 was more than 10 µM and the IC90 is more than 10 µM.

As to `CCCCn1c(C(C)Oc2ccc(Cl)cc2Cl)nc2cc(S(N)(=O)=O)ccc21` (stereo not drawn), the half-inhibitory concentration (IC50) is 0.233 µM and the IC90 stood at 0.529 µM.

Take `CC(=O)Nc1ccc(C2NC(=O)NC(c3ccccc3)=C2c2nc3ccccc3s2)cc1` (stereo not drawn): the concentration for half-maximal inhibition (IC50) was more than 10 µM and the IC90 was more than 10 µM.

On to `O=C(NCCNc1ccnc2cc(Cl)ccc12)c1ccccc1F`, for which the 50% inhibitory concentration (IC50) was found to be 2.31 µM and the IC90 worked out at 8.82 µM.

For the molecule `O=C(Nc1cc(C(F)(F)F)cc(C(F)(F)F)c1)Nc1cc(C(F)(F)F)cc(C(F)(F)F)c1`, the 50% inhibitory concentration (IC50) is more than 6.81 µM and the IC90 is more than 6.81 µM.

Consider `O=C(CN1CCN(C(C(=O)Nc2cc(C(F)(F)F)ccc2Cl)c2ccccc2)CC1)NC1CC1` (stereo not drawn), for which the half-inhibitory concentration (IC50) is 9.79 µM and the concentration for an effect of 90% (IC90) is more than 10 µM.

`Oc1c(C(Nc2nc3ccccc3s2)c2ccc(OC(F)F)cc2)ccc2cccnc12` (stereo not drawn): the IC50 was found to be 5.55 µM and the IC90 was more than 10 µM.

With `CC1(C)N=C(N)N=C(N)N1c1ccc([N+](=O)[O-])cc1`, the IC50 was more than 10 µM and the concentration for an effect of 90% (IC90) was more than 10 µM.

`CCN(CC)S(=O)(=O)c1ccc(C(=O)c2c(C)c(C(=O)C(F)(F)F)c3ccccn23)cc1`: the IC50 is more than 10 µM and the 90% effect concentration (IC90) is more than 10 µM.

As for `COc1ccc(Nc2ccnc3cc(Cl)ccc23)cc1OC`, the IC50 is 7.03 µM and the IC90 was more than 10 µM.
